How the values were obtained:
[1] = Displacement of C18-Aib-lucifer yellow from HIV1 envelope glycoprotein gp41 Fe(env2.0)3 by fluorescence assay; parameters: species or system Human immunodeficiency virus 1
[2] = Cytotoxicity against human HL2/3 cells after 24 hrs by XTT proliferation assay; format: cell-based; details: hl2/3, 24 h
[3] = Inhibition of HIV1 envelope glycoprotein 41-mediated membrane fusion between virus-transfected human HL2/3 cells and human TZM-bl cells after 6 hrs by fluorescence-based cell-cell fusion assay; parameters: species or system Human immunodeficiency virus 1
[4] = tested on: Human immunodeficiency virus 1; experiment: Inhibition of HIV1 envelope glycoprotein gp41 by cell-cell fusion assay
[5] = Inhibition of HIV1 envelope glycoprotein gp41; parameters: species or system Human immunodeficiency virus 1

O=C(O)c1cccc(Cc2ccc3ccn(-c4cccc(C(=O)O)c4)c3c2)c1
Ki [1]: 107 µM | CC50 [2]: > 400 µM

Cc1ccc(C2=NNC3C=CC4C(C(F)(F)F)=CC(C(F)(F)F)=NC4N23)cc1 (stereo not given)
IC50 [3]: 18 µM

O=C(O)c1cccc(Cc2ccc(F)cc2)c1
Ki [1]: 548 µM | IC50 [3]: 560 µM

O=C(O)c1cccc(Cc2ccc3ccn(Cn4ccc5ccc(Cc6cccc(C(=O)O)c6)cc54)c3c2)c1
CC50 [2]: 80 µM

COc1ccc(Cn2ccc3ccc(Cc4cccc(C(=O)O)c4)cc32)cc1
CC50 [2]: 100 µM

COc1ccc(S(=O)(=O)O)cc1/N=N/c1c(S(=O)(=O)O)cc2cc(Nc3nc(Nc4ccccc4)nc(Nc4cc(C)c(/N=N/c5cc(S(=O)(=O)O)cc6cc(S(=O)(=O)O)cc(O)c56)cc4OC)n3)ccc2c1O
INH [4]: 4.2 µM | IC50 [5]: 0.62 µM

COc1cccc(-n2ccc3ccc(Cc4cccc(C(=O)O)c4)cc32)c1
CC50 [2]: > 100 µM
